In PMC7026418, “The kinase polypharmacology landscape of clinical PARP inhibitors” (Scientific Reports, 2020) one finds percent of control binding data, which are given here for four compounds.

Read-outs that look alike come from different tables or passages of the source.

What all share (assay): biochemical
Design in all cases: DiscoveRx KINOMEscan active site-directed competition binding; percent of control kinase bound to immobilised ligand

One assay concerns the target LIMK1 (Homo sapiens, UniProt P53667).
For a further assay, the target named is T1, MAP3K2 (Homo sapiens, UniProt Q9Y2U5).
T1 sequence (Q9Y2U5 1-619): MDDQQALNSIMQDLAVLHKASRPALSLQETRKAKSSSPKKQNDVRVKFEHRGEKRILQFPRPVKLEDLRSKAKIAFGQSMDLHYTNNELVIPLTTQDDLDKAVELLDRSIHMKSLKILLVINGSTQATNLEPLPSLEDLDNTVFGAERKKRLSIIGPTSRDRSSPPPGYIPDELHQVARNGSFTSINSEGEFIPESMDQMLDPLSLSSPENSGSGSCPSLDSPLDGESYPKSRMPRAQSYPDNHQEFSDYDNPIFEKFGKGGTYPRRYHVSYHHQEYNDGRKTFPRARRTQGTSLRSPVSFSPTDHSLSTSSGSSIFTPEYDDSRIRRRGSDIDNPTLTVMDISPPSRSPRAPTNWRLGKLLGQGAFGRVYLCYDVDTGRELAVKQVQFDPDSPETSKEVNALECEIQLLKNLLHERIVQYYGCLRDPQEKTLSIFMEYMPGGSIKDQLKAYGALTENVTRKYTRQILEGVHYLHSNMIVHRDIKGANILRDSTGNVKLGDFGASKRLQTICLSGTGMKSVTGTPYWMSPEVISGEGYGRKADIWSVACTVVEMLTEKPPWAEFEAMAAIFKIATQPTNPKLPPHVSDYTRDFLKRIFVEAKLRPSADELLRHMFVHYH

The target of another assay is T2, MEK3 (Homo sapiens, UniProt P46734).
T2 construct: gene MAP2K3
T2 sequence (P46734 1-347): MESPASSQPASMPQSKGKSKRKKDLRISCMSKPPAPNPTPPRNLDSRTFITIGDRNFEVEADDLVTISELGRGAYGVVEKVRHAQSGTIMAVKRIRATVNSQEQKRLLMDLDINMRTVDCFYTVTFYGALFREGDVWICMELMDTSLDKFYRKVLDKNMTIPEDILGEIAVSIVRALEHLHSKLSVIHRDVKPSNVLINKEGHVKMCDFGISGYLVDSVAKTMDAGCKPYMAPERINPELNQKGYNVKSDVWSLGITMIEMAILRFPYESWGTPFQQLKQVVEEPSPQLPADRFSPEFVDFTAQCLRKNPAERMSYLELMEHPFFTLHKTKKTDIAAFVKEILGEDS

Another assay concerns the target T3, PKAC-alpha (Homo sapiens, UniProt P17612).
T3 construct: gene PRKACA

Another assay addresses PRKCQ (Homo sapiens, UniProt Q04759).
A further assay has as its target T4, RIPK4 (Homo sapiens, UniProt P57078).
T4 sequence (P57078 1-832): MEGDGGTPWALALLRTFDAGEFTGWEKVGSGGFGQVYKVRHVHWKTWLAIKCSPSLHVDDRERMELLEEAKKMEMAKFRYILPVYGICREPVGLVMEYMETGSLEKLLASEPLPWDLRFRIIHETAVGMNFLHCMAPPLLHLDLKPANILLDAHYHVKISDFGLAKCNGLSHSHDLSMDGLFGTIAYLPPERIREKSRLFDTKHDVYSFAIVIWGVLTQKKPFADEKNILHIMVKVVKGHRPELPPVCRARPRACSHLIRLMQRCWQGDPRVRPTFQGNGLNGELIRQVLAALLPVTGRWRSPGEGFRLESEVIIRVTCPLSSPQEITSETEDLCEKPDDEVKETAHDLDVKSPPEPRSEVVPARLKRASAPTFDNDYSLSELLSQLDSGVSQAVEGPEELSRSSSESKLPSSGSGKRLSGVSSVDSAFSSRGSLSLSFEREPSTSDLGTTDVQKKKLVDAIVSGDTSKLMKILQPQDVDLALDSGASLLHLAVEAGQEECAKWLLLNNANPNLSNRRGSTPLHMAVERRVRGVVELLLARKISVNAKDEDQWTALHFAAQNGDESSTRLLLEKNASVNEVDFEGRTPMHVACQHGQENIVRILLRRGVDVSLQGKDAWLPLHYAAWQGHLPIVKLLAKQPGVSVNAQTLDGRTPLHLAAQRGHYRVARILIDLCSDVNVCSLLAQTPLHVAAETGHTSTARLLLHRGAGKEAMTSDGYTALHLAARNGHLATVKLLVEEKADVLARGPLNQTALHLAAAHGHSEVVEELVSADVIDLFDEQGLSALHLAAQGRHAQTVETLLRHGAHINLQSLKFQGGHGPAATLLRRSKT

The target of another assay is T5, SGK3 (Homo sapiens, UniProt Q96BR1).
T5 sequence (Q96BR1 1-496): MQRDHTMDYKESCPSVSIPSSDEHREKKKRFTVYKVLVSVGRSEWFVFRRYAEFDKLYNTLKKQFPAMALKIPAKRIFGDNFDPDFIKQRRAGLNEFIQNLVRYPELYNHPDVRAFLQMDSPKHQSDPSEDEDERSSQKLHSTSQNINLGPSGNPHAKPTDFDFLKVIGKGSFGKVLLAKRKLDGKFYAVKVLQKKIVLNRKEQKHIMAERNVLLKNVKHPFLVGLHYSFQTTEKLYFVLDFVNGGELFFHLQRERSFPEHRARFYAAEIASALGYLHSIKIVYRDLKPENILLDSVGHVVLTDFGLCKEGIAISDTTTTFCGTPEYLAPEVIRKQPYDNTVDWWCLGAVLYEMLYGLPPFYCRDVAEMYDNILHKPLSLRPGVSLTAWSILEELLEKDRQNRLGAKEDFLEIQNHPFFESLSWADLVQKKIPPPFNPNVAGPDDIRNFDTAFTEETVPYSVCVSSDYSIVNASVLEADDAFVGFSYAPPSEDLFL

[1] abbreviates: read-out: Niraparib (MK-4827) / %Ctrl @ 10000nM.
The mark [2] stands for this setting: read-out: Talazoparib (BMN 673) / %Ctrl @ 10000nM.
[3] abbreviates: read-out: Rucaparib / %Ctrl @ 10000nM, binding competition, % of control.
Where [4] appears, read: read-out: Olaparib / %Ctrl @ 10000nM.

PRKCQ, sequence (Q04759 whole entry): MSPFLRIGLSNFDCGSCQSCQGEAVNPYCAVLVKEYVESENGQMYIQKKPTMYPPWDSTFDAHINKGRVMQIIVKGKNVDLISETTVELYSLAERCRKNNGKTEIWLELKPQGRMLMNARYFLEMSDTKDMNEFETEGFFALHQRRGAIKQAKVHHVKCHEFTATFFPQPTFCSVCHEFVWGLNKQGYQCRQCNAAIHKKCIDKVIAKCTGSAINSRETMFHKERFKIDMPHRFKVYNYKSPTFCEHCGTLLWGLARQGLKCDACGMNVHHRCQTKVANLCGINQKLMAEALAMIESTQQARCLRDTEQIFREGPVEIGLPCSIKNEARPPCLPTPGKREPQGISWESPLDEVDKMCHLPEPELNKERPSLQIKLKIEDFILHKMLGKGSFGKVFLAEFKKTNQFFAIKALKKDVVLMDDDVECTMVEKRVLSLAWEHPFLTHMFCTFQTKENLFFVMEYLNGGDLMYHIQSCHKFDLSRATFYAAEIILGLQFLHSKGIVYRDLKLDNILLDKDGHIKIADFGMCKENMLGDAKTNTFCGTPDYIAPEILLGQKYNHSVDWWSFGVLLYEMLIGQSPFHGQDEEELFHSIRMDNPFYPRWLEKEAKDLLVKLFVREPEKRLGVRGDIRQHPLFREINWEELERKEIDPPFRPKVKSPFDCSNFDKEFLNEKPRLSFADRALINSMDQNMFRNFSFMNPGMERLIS
LIMK1, sequence (P53667 whole entry): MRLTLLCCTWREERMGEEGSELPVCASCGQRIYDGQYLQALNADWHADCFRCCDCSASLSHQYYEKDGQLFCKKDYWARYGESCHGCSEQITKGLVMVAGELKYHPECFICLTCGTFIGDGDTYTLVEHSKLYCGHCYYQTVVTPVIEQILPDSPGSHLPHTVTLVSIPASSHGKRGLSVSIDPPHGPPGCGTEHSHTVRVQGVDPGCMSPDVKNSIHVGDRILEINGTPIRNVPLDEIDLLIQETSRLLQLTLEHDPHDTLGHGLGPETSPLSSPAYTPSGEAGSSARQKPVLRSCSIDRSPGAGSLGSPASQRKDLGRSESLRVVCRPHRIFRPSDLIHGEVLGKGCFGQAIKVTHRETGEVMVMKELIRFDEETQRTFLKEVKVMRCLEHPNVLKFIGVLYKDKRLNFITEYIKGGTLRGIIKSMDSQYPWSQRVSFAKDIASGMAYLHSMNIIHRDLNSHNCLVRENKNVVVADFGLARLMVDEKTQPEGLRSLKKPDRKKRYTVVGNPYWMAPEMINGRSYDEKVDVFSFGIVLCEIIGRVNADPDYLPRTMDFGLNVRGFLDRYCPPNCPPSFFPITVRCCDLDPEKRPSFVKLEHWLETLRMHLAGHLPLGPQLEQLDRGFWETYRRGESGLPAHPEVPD

Turning to `NC(=O)c1cccc2cn(-c3ccc([C@@H]4CCCNC4)cc3)nc12` [Niraparib], the percent of control binding at 10 µM came to 82% at LIMK1 (setting [1]); 97% at MAP3K2 (setting [1]); 80% at MEK3 (setting [1]); 86% at PKAC-alpha (setting [1]); 73% at PRKCQ (setting [1]); 81% on RIPK4 (setting [1]). Besides, the percent of control binding at 10 µM on SGK3 (setting [1]) came to 98%.

With `Cn1ncnc1[C@H]1c2n[nH]c(=O)c3cc(F)cc(c23)N[C@@H]1c1ccc(F)cc1` [Talazoparib], the percent of control binding at 10 µM was 99% at LIMK1 (setting [2]); 98% on MAP3K2 (setting [2]); 65% at MEK3 (setting [2]); 88% at PKAC-alpha (setting [2]); 89% on PRKCQ (setting [2]); 69% at RIPK4 (setting [2]). The percent of control binding at 10 µM on SGK3 (setting [2]) was 100%.

As to `CNCc1ccc(-c2[nH]c3cc(F)cc4c3c2CCNC4=O)cc1` [Rucaparib], the percent of control binding at 10 µM at LIMK1 (setting [3]) came to 100%; at MAP3K2 (setting [3]), 82%; at MEK3 (setting [3]) it was 83%; at PKAC-alpha (setting [3]) it was 100%; at PRKCQ (setting [3]), 93%; on RIPK4 (setting [3]), 75%. The percent of control binding at 10 µM on SGK3 (setting [3]) came out at 38%.

For `O=C(c1cc(Cc2n[nH]c(=O)c3ccccc23)ccc1F)N1CCN(C(=O)C2CC2)CC1` [Olaparib], the percent of control binding at 10 µM was 100% on LIMK1 (setting [4]); 92% on MAP3K2 (setting [4]); 85% at MEK3 (setting [4]); 100% at PKAC-alpha (setting [4]); 95% on PRKCQ (setting [4]); 81% on RIPK4 (setting [4]). Besides, the percent of control binding at 10 µM at SGK3 (setting [4]) came out at 79%.
